Assay results reported in patent EP4810052A2, “HCRHR2 SELECTIVE POLYPEPTIDES” (Gubra A/S, priority 2023, dated 2026).
Read-outs that look alike come from different tables or passages of the source. Starred links: 1 amine or outer side, 2 acyl side, 3 side chain; linkers in the order of their positions; H or OH if unused. Non-standard residues stand in square brackets, D forms with d. Residues, ends and D or L forms follow the SMILES beside them. Groups on a side chain read outwards from the residue. *: point of attachment. C20 diacid = O=C(O)CCCCCCCCCCCCCCCCCCC(=O)*; γGlu = O=C(O)[C@H](CCC(=O)[*:2])N[*:1]; Nle = CCCC[C@H](N)C(=O)O; AEEA = NCCOCCOCC(=O)O

Experiments:
hCRHR1 = target: T1, hCRHR1 (Homo sapiens, UniProt P34998); test: HTRF cAMP assay, determination of hCRHR1 potency (peptide libraries 5 conc., purified peptides 11 conc.); assay type: cell-based; settings: read-out: hCRHR1 EC50
T1 sequence (P34998 24-415): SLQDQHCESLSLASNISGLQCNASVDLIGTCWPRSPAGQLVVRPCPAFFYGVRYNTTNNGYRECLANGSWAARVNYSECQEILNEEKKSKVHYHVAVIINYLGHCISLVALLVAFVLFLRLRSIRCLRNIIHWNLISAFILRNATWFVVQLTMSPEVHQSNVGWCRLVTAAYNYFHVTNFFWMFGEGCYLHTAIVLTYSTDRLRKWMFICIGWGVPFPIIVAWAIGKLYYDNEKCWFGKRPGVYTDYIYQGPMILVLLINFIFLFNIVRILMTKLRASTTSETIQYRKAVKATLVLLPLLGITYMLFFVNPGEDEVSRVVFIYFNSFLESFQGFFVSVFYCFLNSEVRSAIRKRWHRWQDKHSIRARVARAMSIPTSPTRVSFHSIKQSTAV
In short: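 Cellular cAMP was read by time-resolved FRET between d2-labelled cAMP and cryptate anti-cAMP antibody. The cells were freshly thawed suspension CHO-K1 cells stably expressing human CRHR1.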

[1] = Chemical stability of purified peptides (RP-UHPLC main peak purity loss); assay type: physicochemical
Description: Chemical stability was tested at a concentration of approximately of 1.0 mg/ml peptide in the following vehicles: 50 mM phosphate buffer pH 7.5. Dissolved samples were incubated for at least 2 h at room temperature on a rocking table. The main peak purity at time zero (T0) was determined using reversed phase chromatography. The samples were incubated at 40°C for 14 days (T14) and 28 days (T28). The samples were analyzed with reversed phase chromatography and size exclusion chromatography.
Reversed Phase chromatography was performed on a Thermo Dionex Ultimate UHPLC system with UV detection at 215 nm) and equipped with a Kinetex column (1.7 µm, C8, 100 Å, 150 x 2.1 mm (00F-4499-AN)). Analysis was performed by gradient elution with buffer A (0.1% TFA in 95:5 H2O:acetonitrile) and buffer B (0.1% TFA in 5:95 H2O: acetonitrile) at a column temperature of 50 °C (gradient used 25-55%B over 40 min. Flowrate was 0.5 mL/min. The main peak purity was determined from the integrated chromatogram as the area under the main peak relative to the total peak area. The purity loss was calculated as the difference between the T0 and T14 time point and/or as the difference between the T0 and T28 time point.
The chemical stability of selected peptides was evaluated at varying pH's at 40° C over 28 days. Samples were prepared and analysed as described in procedure with the addition of pH adjusting samples to the targets indicated below. As a comparator,r commercially available semaglutide drug product (Ozempic®, Novo Nordisk) was included in the sample set.

hCRHR2 = target: T2, hCRHR2 (Homo sapiens, UniProt Q13324); test: HTRF cAMP assay, determination of hCRHR2 potency (peptide libraries 5 conc., purified peptides 11 conc.); assay type: cell-based; settings: for EC50: read-out: hCRHR2 EC50
T2 sequence (Q13324 1-411): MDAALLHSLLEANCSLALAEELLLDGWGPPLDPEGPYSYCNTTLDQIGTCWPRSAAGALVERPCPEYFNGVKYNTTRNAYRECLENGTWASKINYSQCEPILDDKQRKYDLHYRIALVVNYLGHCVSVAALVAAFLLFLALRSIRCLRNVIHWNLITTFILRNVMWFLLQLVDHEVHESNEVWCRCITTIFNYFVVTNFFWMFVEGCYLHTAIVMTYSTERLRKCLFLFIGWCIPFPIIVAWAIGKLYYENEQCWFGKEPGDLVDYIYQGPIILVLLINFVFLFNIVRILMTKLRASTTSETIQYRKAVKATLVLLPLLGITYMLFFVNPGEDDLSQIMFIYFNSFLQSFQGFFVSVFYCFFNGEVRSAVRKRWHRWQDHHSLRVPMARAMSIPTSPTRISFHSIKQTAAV
In short: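 Cells: CHO-K1/hCRHR2 stable clone, suspension, freshly thawed. Readout: competitive TR-FRET, anti-cAMP cryptate vs cAMP-d2. Analysis: sigmoid variable-slope nonlinear regression → EC50.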

[2] = pH 7.5
[3] = Thioflavin T fibril formation assay of purified peptides; assay type: physicochemical; set-up: key: Amyloid fibril formation detected by an increase in ThT fluorescence was denoted with "Yes"; samples without increasing ThT fluorescence hence not forming amyloid fibrils were denoted "No"
Description: Thioflavin T fibril formation assay: Peptides were dissolved as 267 µM in 50 mM phosphate buffer pH 7.5 for 2 h at room temperature on a rocking table. The samples were then divided into three replicates of 80 µl/well and mixed with 2 µl/well Thioflavin T (ThT)to a final concentration of 4 µM ThT in a black 384 well microplate with a clear bottom (Greiner #781096). The plate was inserted in a CLARIOstar Plus microplate reader (BMG Labtech) and fibril formation was measured as an increase in fluorescence emission at 480 nm (excitation at 450 nm) during 96 h at 40°C with cycles of 5 min rest and 5 min linearshaking at700 rpm.
Compounds were dissolved to 200 µM (ca 1.0 mg/ml) in 50 mM phosphate buffer with preparation and ThT assay performed as described in the "General procedure for determination of fibril formation of peptides." above. Furthermore, samples were adjusted to pH values as indicated below. Additional co-formulations of compounds with semaglutide were prepared by dissolving compounds to 200 µM in commercially available semaglutide drug product (Ozempic®); these co-formulations were adjusted to pH 7.4.

[4] = purified peptides, CHO-K1 cells stably expressing hCRHR1, cAMP HTRF
[5] = purified peptides, CHO-K1 cells stably expressing hCRHR2, cAMP HTRF

| EC50 (hCRHR1; [4]) [nM] | Chemical stability at pH 7.5 after 28 days at 40°C (% degradation) ([1]; pH 7.5, 40°C, 28 days, second value of cell) [%] | Selectivity ratio (hCRHR1/ hCRHR2) (hCRHR2; hCRHR1-EC50/hCRHR2-EC50) | EC50 (hCRHR2; [5]) [nM] | Solubility pH 7.5, target conc. =10 mg/mL (measured mg/mL) [2] [mg/mL] | Fibrillation (pH 7.5) ([3]; pH 7.5, ThT assay) | EC50 (hCRHR1; Table 5, purified peptides) [nM] | Chemical stability at pH 7.5 after 14 days at 40°C (% degradation) ([1]; pH 7.5, 14 days, 40°C) [%] | Chemical stability at pH 7.5 after 28 days at 40°C (% degradation) ([1]; pH 7.5, 28 days, 40°C) [%] | Selectivity ratio (hCRHR1/ hCRHR2) (hCRHR2; Table 5) | EC50 (hCRHR2; Table 5, purified peptides) [nM] | Fibrillation (pH 7.5) ([3]; pH 7.5) | Solubility pH 7.5, target conc. =5 mg/mL (measured mg/mL) [2] [mg/mL] | SMILES |
| --- | --- | --- | --- | --- | --- | --- | --- | --- | --- | --- | --- | --- | --- |
| > 5000 | -23 | >2000 | 2.5 | 9.8 | No |  |  |  |  |  |  |  | CC[C@H](C)[C@H](NC(=O)[C@H](CCC(=O)O)NC(=O)[C@H](C)NC(=O)[C@H](CC(N)=O)NC(=O)[C@@H](NC(=O)[C@H](CCCCNC(=O)COCCOCCNC(=O)COCCOCCNC(=O)CC[C@H](NC(=O)CC[C@H](NC(=O)CCCCCCCCCCCCCCCCCCC(=O)O)C(=O)O)C(=O)O)NC(=O)[C@H](C)NC(=O)[C@H](CCC(N)=O)NC(=O)[C@H](CCC(=O)O)NC(=O)[C@H](CCCNC(=N)N)NC(=O)[C@H](C)NC(=O)[C@H](C)NC(=O)[C@H](CCCNC(=N)N)NC(=O)[C@H](C)NC(=O)[C@H](CCCNC(=N)N)NC(=O)[C@H](C)NC(=O)[C@H](CCC(N)=O)NC(=O)[C@H](CCC(=O)O)NC(=O)[C@H](CC(C)C)NC(=O)[C@H](CC(C)C)NC(=O)[C@@H](NC(=O)[C@H](CCC(N)=O)NC(=O)[C@H](CC(C)C)NC(=O)[C@H](CC(C)C)NC(=O)CNC(=O)[C@@H](NC(=O)[C@@H]1CCCN1C(=O)[C@@H](NC(=O)[C@H](CC(=O)O)NC(=O)[C@H](CC(C)C)NC(=O)[C@H](CO)NC(=O)[C@H](CC(C)C)NC(=O)[C@@H](NC(=O)[C@@H]1CCCN1)C(C)C)C(C)C)[C@@H](C)CC)[C@@H](C)CC)[C@@H](C)O)C(=O)N[C@@H](CC(C)C)C(=O)N[C@@H](C)C(=O)N[C@@H](CCC(=O)O)C(=O)N[C@H](C(N)=O)C(C)C [SEQ ID NO: 7] (H-PVLSLDVPIGLLQILLEQARARAAREQAK([AEEA-AEEA-γGlu-γGlu-C20 diacid])TNAEILAEV-NH2) |
|  |  |  |  | 11 |  | > 5000 | -1.9 | -2.2 | >5556 | 0.9 | No |  | CCCC[C@H](NC(=O)[C@@H](NC(=O)[C@H](CCC(=O)O)NC(=O)[C@H](C)NC(=O)[C@H](CC(N)=O)NC(=O)[C@H](CCC(=O)O)NC(=O)[C@H](CCCCNC(=O)COCCOCCNC(=O)COCCOCCNC(=O)CC[C@H](NC(=O)CC[C@H](NC(=O)CCCCCCCCCCCCCCCCCCC(=O)O)C(=O)O)C(=O)O)NC(=O)[C@H](C)NC(=O)[C@H](CCC(N)=O)NC(=O)[C@H](CCC(=O)O)NC(=O)[C@H](CCCNC(=N)N)NC(=O)[C@H](C)NC(=O)[C@H](C)NC(=O)[C@H](CCCNC(=N)N)NC(=O)[C@H](C)NC(=O)[C@H](CCCNC(=N)N)NC(=O)[C@H](C)NC(=O)[C@H](CCC(N)=O)NC(=O)[C@H](CO)NC(=O)[C@H](CC(C)C)NC(=O)[C@H](CC(C)C)NC(=O)[C@@H](NC(=O)[C@H](CCC(N)=O)NC(=O)[C@H](CC(C)C)NC(=O)[C@H](CC(C)C)NC(=O)CNC(=O)[C@@H](NC(=O)[C@@H]1CCCN1C(=O)[C@@H](NC(=O)[C@H](CC(=O)O)NC(=O)[C@H](CC(C)C)NC(=O)[C@H](CO)NC(=O)[C@H](CC(C)C)NC(=O)[C@@H](NC(=O)[C@@H](N)[C@@H](C)CC)C(C)C)C(C)C)[C@@H](C)CC)[C@@H](C)CC)[C@@H](C)CC)C(=O)N[C@@H](C)C(=O)N[C@@H](CCC(=O)O)C(=O)N[C@H](C(N)=O)C(C)C [compound 239] (H-IVLSLDVPIGLLQILLSQARARAAREQAK([AEEA-AEEA-γGlu-γGlu-C20 diacid])ENAEI[Nle]AEV-NH2) |
| > 5000 |  | >2778 | 1.8 |  | No |  |  |  |  |  |  | 0.016 | CC[C@H](C)[C@H](N)C(=O)N[C@H](C(=O)N[C@@H](CC(C)C)C(=O)N[C@@H](CO)C(=O)N[C@@H](CC(C)C)C(=O)N[C@@H](CC(=O)O)C(=O)N[C@H](C(=O)N1CCC[C@H]1C(=O)N[C@H](C(=O)NCC(=O)N[C@@H](CC(C)C)C(=O)N[C@@H](CC(C)C)C(=O)N[C@@H](CCC(N)=O)C(=O)N[C@H](C(=O)N[C@@H](CC(C)C)C(=O)N[C@@H](CC(C)C)C(=O)N[C@@H](CCC(=O)O)C(=O)N[C@@H](CCC(N)=O)C(=O)N[C@@H](C)C(=O)N[C@@H](CCCNC(=N)N)C(=O)N[C@@H](C)C(=O)N[C@@H](CCCNC(=N)N)C(=O)N[C@@H](C)C(=O)N[C@@H](C)C(=O)N[C@@H](CCCNC(=N)N)C(=O)N[C@@H](CCC(=O)O)C(=O)N[C@@H](CCC(N)=O)C(=O)N[C@@H](C)C(=O)N[C@@H](CCCCNC(=O)COCCOCCNC(=O)COCCOCCNC(=O)CC[C@H](NC(=O)CC[C@H](NC(=O)CCCCCCCCCCCCCCCCCCC(=O)O)C(=O)O)C(=O)O)C(=O)N[C@H](C(=O)N[C@@H](CC(N)=O)C(=O)N[C@@H](C)C(=O)N[C@@H](CCCNC(=N)N)C(=O)N[C@H](C(=O)N[C@@H](CC(C)C)C(=O)N[C@@H](C)C(=O)N[C@@H](CCCNC(=N)N)C(=O)N[C@H](C(N)=O)C(C)C)[C@@H](C)CC)[C@@H](C)O)[C@@H](C)CC)[C@@H](C)CC)C(C)C)C(C)C [SEQ ID NO: 2] (H-IVLSLDVPIGLLQILLEQARARAAREQAK([AEEA-AEEA-γGlu-γGlu-C20 diacid])TNARILARV-NH2) |
